According to US11771738B2 (Zoetis Services LLC, priority 2018, dated 2023):
Like-named read-outs stand apart in the source and are kept apart here.

Experiments:
Type in all cases: cell-based
D. immitis L4 larvae = assay: Dirofilaria immitis, L4 Stage (DiL4) In Vitro Assay; conditions: for minimal effective concentration: Dirofilaria immitis, 72 h, read-out: DiL4 MED, Minimum Effective Dose, D. immitis L4 larvae motility, in vitro; for DiMf/DiL4: larval stage selectivity, ratio of DiMf MED to DiL4 MED
[1] = test system: third stage larvae of Haemonchus contortus; assay: Haemonchus contortus, Larvae Stage 3 (HcL3) In Vitro Assay; conditions: Haemonchus contortus, 96 h
[2] = test system: microfilariae of Dirofilaria immitis; assay: Dirofilaria immitis, Microfilaria (DiMf) In Vitro Assay; conditions: Dirofilaria immitis, 72 h, read-out: DiMf MED, Minimum Effective Dose, D. immitis microfilariae motility, in vitro
[3] = read-out: HcL3 MED (symbol after Ex#), approximately 96 hours incubation, multiple-resistant field isolate
[4] = read-out: HcL3 MED, Minimum Effective Dose, H. contortus third stage larvae, approximately 96 hours
[5] = read-out: HcL3 MED, approximately 96 hours incubation, multiple-resistant field isolate
[6] = read-out: HcL3 MED, Haemonchus contortus third stage larvae in vitro, class mark appended to the Ex # in Table 3

SMILES | minimal effective concentration (D. immitis L4 larvae) | DiMf/DiL4 (D. immitis L4 larvae) | minimal effective concentration [1, 3] | minimal effective concentration [1, 4] | minimal effective concentration [1, 5] | minimal effective concentration [2] | minimal effective concentration [1, 6]
CC(C)C[C@H]1C(=O)O[C@H](Cc2ccc(Cc3ccccc3)cc2)C(=O)N(C)[C@@H](CC(C)C)C(=O)O[C@H](C)C(=O)N(C)[C@@H](CC(C)C)C(=O)O[C@H](Cc2ccccc2)C(=O)N(C)[C@@H](CC(C)C)C(=O)O[C@H](C)C(=O)N1C [Example 2-1, (3S,6R,9S,12R,15S,18R,21S,24R)-6-benzyl-18-(4-benzylbenzyl)-3,9,15,21-tetraisobutyl-4,10,12,16,22,24-hexamethyl-1,7,13,19-tetraoxa-4,10,16,22-tetraazacyclotetracosan-2,5,8,11,14,17,20,23-octaone] | 0.001 µM | 20 | < 1 µM | 0.65 µM | ≤ 1 µM | 0.02 µM | 
CC(C)C[C@H]1C(=O)O[C@H](Cc2ccc(Cc3ccc(F)cc3)cc2)C(=O)N(C)[C@@H](CC(C)C)C(=O)O[C@H](C)C(=O)N(C)[C@@H](CC(C)C)C(=O)O[C@H](Cc2ccccc2)C(=O)N(C)[C@@H](CC(C)C)C(=O)O[C@H](C)C(=O)N1C [Example 2-4, (3S,6R,9S,12R,15S,18R,21S,24R)-6-benzyl-18-(4-(4-fluorobenzyl)benzyl)-3,9,15,21-tetraisobutyl-4,10,12,16,22,24-hexamethyl-1,7,13,19-tetraoxa-4,10,16,22-tetraazacyclotetracosan-2,5,8,11,14,17,20,23-octaone] | 0.0007 µM | 71.4 | 1 to 3.3 µM | 3.3 µM |  | 0.05 µM | 
CCN(CC)C(c1ccc(C[C@H]2OC(=O)[C@H](CC(C)C)N(C)C(=O)[C@@H](C)OC(=O)[C@H](CC(C)C)N(C)C(=O)[C@@H](Cc3ccccc3)OC(=O)[C@H](CC(C)C)N(C)C(=O)[C@@H](C)OC(=O)[C@H](CC(C)C)N(C)C2=O)cc1)c1ccc(F)c(F)c1 (stereo partly drawn) [Example 2-36, (3S,6R,9S,12R,15S,18R,21S,24R)-6-benzyl-18-(4-((diethylamino)(3,4-difluorophenyl)methyl)benzyl)-3,9,15,21-tetraisobutyl-4,10,12,16,22,24-hexamethyl-1,7,13,19-tetraoxa-4,10,16,22-tetraazacyclotetracosan-2,5,8,11,14,17,20,23-octaone] | 0.0002 µM | 150 |  | 1 µM |  | 0.03 µM | 
COC(c1ccc(C[C@H]2OC(=O)[C@H](CC(C)C)N(C)C(=O)[C@@H](C)OC(=O)[C@H](CC(C)C)N(C)C(=O)[C@@H](Cc3ccccc3)OC(=O)[C@H](CC(C)C)N(C)C(=O)[C@@H](C)OC(=O)[C@H](CC(C)C)N(C)C2=O)cc1)c1ccc(F)c(F)c1 (stereo partly drawn) [Example 2-37, (3S,6R,9S,12R,15S,18R,21S,24R)-6-benzyl-18-(4-((3,4-difluorophenyl)(methoxy)methyl)benzyl)-3,9,15,21-tetraisobutyl-4,10,12,16,22,24-hexamethyl-1,7,13,19-tetraoxa-4,10,16,22-tetraazacyclotetracosan-2,5,8,11,14,17,20,23-octaone] | 0.001 µM | 20 | 1 to 3.3 µM | 3.3 µM |  | 0.02 µM | 
CCOC(c1ccc(C[C@H]2OC(=O)[C@H](CC(C)C)N(C)C(=O)[C@@H](C)OC(=O)[C@H](CC(C)C)N(C)C(=O)[C@@H](Cc3ccccc3)OC(=O)[C@H](CC(C)C)N(C)C(=O)[C@@H](C)OC(=O)[C@H](CC(C)C)N(C)C2=O)cc1)c1ccc(F)c(F)c1 (stereo partly drawn) [Example 2-38, (3S,6R,9S,12R,15S,18R,21S,24R)-6-benzyl-18-(4-((3,4-difluorophenyl)(ethoxy)methyl)benzyl)-3,9,15,21-tetraisobutyl-4,10,12,16,22,24-hexamethyl-1,7,13,19-tetraoxa-4,10,16,22-tetraazacyclotetracosan-2,5,8,11,14,17,20,23-octaone] | 0.0006 µM | 50 | < 1 µM | 0.5 µM | ≤ 1 µM | 0.03 µM | 
CC(C)C[C@H]1C(=O)O[C@H](Cc2ccc([C@@H](c3ccc(OC(F)(F)F)cc3)N3CCOCC3)cc2)C(=O)N(C)[C@@H](CC(C)C)C(=O)O[C@H](C)C(=O)N(C)[C@@H](CC(C)C)C(=O)O[C@H](Cc2ccccc2)C(=O)N(C)[C@@H](CC(C)C)C(=O)O[C@@H](C)C(=O)N1C [Example 2-42, (3S,6R,9S,12R,15S,18R,21S,24S)-6-benzyl-3,9,15,21-tetraisobutyl-4,10,12,16,22,24-hexamethyl-18-[[4-[(S)-morpholino-[4-(trifluoromethoxy)phenyl]-methyl]phenyl]methyl]-1,7,13,19-tetraoxa-4,10,16,22-tetrazacyclotetracosane-2,5,8,11,14,17,20,23-octaone] | 0.0003 µM | 1000 |  | > 10 µM |  | 0.3 µM | 
CC(C)C[C@H]1C(=O)O[C@H](Cc2ccc(Cc3cccs3)cc2)C(=O)N(C)[C@@H](CC(C)C)C(=O)O[C@H](C)C(=O)N(C)[C@@H](CC(C)C)C(=O)O[C@H](Cc2ccc(Cc3cccs3)cc2)C(=O)N(C)[C@@H](CC(C)C)C(=O)O[C@H](C)C(=O)N1C [Example 3-4, (3S,6R,9S,12R,15S,18R,21S,24R)-3,9,15,21-tetraisobutyl-4,6,10,16,18,22-hexamethyl-12,24-bis(4-(thiophen-2-ylmethyl)benzyl)-1,7,13,19-tetraoxa-4,10,16,22-tetraazacyclotetracosan-2,5,8,11,14,17,20,23-octaone] | 0.0001 µM | 200 |  | 0.5 µM | ≤ 1 µM | 0.02 µM | < 1 µM
CC(C)C[C@H]1C(=O)O[C@H](Cc2ccc(Cc3ccco3)cc2)C(=O)N(C)[C@@H](CC(C)C)C(=O)O[C@H](C)C(=O)N(C)[C@@H](CC(C)C)C(=O)O[C@H](Cc2ccc(Cc3ccco3)cc2)C(=O)N(C)[C@@H](CC(C)C)C(=O)O[C@H](C)C(=O)N1C [Example 3-8, (3S,6R,9S,12R,15S,18R,21S,24R)-6,18-bis(4-(furan-2-ylmethyl)benzyl)-3,9,15,21-tetraisobutyl-4,10,12,16,22,24-hexamethyl-1,7,13,19-tetraoxa-4,10,16,22-tetraazacyclotetracosan-2,5,8,11,14,17,20,23-octaone] | 0.0003 µM | 33.3 |  | 1 µM | ≤ 1 µM | 0.01 µM | < 1 µM
CC(C)C[C@H]1C(=O)O[C@H](Cc2ccc(Cc3cncs3)cc2)C(=O)N(C)[C@@H](CC(C)C)C(=O)O[C@H](C)C(=O)N(C)[C@@H](CC(C)C)C(=O)O[C@H](Cc2ccc(Cc3cncs3)cc2)C(=O)N(C)[C@@H](CC(C)C)C(=O)O[C@H](C)C(=O)N1C [Example 3-12, (3S,6R,9S,12R,15S,18R,21S,24R)-3,9,15,21-tetraisobutyl-4,6,10,16,18,22-hexamethyl-12,24-bis(4-(thiazol-5-ylmethyl)benzyl)-1,7,13,19-tetraoxa-4,10,16,22-tetraazacyclotetracosan-2,5,8,11,14,17,20,23-octaone] | 0.001 µM | 0.7 |  | 3.3 µM |  | 0.0007 µM | 1 to 3.3 µM
CC(C)C[C@H]1C(=O)O[C@H](Cc2ccc(Cc3nccs3)cc2)C(=O)N(C)[C@@H](CC(C)C)C(=O)O[C@H](C)C(=O)N(C)[C@@H](CC(C)C)C(=O)O[C@H](Cc2ccc(Cc3nccs3)cc2)C(=O)N(C)[C@@H](CC(C)C)C(=O)O[C@H](C)C(=O)N1C [Example 3-17, (3S,6R,9S,12R,15S,18R,21S,24R)-3,9,15,21-tetraisobutyl-4,6,10,16,18,22-hexamethyl-12,24-bis(4-(thiazol-2-ylmethyl)benzyl)-1,7,13,19-tetraoxa-4,10,16,22-tetraazacyclotetracosan-2,5,8,11,14,17,20,23-octaone] | 0.0003 µM | 1 |  | 0.5 µM | ≤ 1 µM | 0.0003 µM | < 1 µM
CC(C)C[C@H]1C(=O)O[C@H](Cc2ccc(Cc3ncco3)cc2)C(=O)N(C)[C@@H](CC(C)C)C(=O)O[C@H](C)C(=O)N(C)[C@@H](CC(C)C)C(=O)O[C@H](Cc2ccc(Cc3ncco3)cc2)C(=O)N(C)[C@@H](CC(C)C)C(=O)O[C@H](C)C(=O)N1C [Example 3-18, (3S,6R,9S,12R,15S,18R,21S,24R)-3,9,15,21-tetraisobutyl-4,6,10,16,18,22-hexamethyl-12,24-bis(4-(oxazol-2-ylmethyl)benzyl)-1,7,13,19-tetraoxa-4,10,16,22-tetraazacyclotetracosan-2,5,8,11,14,17,20,23-octaone] | 0.0001 µM | 2 |  | 1 µM | ≤ 1 µM | 0.0002 µM | < 1 µM
